{"source": "patent US20260193264A1", "about": "“BENZOYPARAZINE PYRAZINES AND THEIR USES” (FOGHORN THERAPEUTICS INC., priority 2022, published 2026)", "key": {"[1]": {"biological_target": "T1, HiBiT-BRM fusion protein in stable HeLa cell line (Homo sapiens, UniProt P51531)", "T1 construct": "expressed in transfected cells", "T1 sequence (P51531 whole entry, the tested form may be a part)": "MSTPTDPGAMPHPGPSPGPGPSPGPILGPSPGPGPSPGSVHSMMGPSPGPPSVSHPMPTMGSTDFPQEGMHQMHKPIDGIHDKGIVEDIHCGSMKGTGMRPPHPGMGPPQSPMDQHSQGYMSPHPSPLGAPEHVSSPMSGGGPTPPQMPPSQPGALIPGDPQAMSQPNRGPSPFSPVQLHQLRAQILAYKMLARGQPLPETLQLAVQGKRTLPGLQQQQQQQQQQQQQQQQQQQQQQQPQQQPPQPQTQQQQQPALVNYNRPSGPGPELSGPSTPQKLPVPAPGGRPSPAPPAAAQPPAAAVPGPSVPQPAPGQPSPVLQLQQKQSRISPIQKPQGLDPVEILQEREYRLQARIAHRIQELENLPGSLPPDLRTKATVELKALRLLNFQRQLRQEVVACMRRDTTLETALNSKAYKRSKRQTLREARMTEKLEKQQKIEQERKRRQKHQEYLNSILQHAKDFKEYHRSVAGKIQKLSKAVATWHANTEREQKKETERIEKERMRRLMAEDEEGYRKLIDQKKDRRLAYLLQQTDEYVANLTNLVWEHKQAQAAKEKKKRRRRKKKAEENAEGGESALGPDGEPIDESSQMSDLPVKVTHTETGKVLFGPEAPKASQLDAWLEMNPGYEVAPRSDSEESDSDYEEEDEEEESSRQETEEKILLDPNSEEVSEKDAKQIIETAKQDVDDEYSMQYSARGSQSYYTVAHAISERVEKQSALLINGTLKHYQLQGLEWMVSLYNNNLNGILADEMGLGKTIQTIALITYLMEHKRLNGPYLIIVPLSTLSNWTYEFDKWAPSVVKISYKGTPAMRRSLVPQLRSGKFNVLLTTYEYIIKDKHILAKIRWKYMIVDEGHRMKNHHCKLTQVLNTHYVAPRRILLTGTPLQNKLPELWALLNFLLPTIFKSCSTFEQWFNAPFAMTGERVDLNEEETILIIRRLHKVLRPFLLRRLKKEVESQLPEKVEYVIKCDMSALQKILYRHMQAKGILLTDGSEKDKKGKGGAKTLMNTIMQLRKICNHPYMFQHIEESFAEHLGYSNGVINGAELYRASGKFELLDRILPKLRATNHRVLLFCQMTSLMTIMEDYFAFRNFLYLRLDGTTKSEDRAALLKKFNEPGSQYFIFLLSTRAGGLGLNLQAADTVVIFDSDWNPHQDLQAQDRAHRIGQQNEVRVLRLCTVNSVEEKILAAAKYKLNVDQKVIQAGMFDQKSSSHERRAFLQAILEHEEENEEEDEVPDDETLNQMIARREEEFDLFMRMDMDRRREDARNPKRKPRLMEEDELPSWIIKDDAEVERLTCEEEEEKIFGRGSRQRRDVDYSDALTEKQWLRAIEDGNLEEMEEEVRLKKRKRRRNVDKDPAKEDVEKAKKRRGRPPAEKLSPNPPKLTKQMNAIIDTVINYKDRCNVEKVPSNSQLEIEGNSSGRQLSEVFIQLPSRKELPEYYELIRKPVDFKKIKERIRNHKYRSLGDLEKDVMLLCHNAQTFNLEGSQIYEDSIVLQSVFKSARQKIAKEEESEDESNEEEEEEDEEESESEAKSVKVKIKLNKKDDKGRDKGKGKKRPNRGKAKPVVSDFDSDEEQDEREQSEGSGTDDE", "test": "HiBiT-BRM cell-based degradation assay (Nano-Glo HiBiT Lytic Detection, 24 h)", "parameters": "DC50: scale not given here", "details": "HeLa HiBiT-BRM cells; for DC50: read-out: BRM HiBit Degradation IC50; for BRM HiBit Degradation Maximum (%): top dose 30 μM", "procedure,_shortened": "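Luminescence from HiBiT/LgBiT complementation after lysis reports remaining HiBiT-BRM in stable HeLa cells exposed to compound for 24 h. Dosing used 3-fold serial dilutions, 10 points, 30 μM top final concentration. DMSO and a 2 μM BRM/BRG1 degrader standard defined 0% and 100% degradation.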"}, "[2]": {"biological_target": "T2, HiBit-BRG1 fusion protein in stable HeLa cell line expressing HiBit-BRG1 and LgBit (Homo sapiens, UniProt P51532)", "T2 construct": "expressed in transfected cells", "T2 sequence (P51532 whole entry, the tested form may be a part)": "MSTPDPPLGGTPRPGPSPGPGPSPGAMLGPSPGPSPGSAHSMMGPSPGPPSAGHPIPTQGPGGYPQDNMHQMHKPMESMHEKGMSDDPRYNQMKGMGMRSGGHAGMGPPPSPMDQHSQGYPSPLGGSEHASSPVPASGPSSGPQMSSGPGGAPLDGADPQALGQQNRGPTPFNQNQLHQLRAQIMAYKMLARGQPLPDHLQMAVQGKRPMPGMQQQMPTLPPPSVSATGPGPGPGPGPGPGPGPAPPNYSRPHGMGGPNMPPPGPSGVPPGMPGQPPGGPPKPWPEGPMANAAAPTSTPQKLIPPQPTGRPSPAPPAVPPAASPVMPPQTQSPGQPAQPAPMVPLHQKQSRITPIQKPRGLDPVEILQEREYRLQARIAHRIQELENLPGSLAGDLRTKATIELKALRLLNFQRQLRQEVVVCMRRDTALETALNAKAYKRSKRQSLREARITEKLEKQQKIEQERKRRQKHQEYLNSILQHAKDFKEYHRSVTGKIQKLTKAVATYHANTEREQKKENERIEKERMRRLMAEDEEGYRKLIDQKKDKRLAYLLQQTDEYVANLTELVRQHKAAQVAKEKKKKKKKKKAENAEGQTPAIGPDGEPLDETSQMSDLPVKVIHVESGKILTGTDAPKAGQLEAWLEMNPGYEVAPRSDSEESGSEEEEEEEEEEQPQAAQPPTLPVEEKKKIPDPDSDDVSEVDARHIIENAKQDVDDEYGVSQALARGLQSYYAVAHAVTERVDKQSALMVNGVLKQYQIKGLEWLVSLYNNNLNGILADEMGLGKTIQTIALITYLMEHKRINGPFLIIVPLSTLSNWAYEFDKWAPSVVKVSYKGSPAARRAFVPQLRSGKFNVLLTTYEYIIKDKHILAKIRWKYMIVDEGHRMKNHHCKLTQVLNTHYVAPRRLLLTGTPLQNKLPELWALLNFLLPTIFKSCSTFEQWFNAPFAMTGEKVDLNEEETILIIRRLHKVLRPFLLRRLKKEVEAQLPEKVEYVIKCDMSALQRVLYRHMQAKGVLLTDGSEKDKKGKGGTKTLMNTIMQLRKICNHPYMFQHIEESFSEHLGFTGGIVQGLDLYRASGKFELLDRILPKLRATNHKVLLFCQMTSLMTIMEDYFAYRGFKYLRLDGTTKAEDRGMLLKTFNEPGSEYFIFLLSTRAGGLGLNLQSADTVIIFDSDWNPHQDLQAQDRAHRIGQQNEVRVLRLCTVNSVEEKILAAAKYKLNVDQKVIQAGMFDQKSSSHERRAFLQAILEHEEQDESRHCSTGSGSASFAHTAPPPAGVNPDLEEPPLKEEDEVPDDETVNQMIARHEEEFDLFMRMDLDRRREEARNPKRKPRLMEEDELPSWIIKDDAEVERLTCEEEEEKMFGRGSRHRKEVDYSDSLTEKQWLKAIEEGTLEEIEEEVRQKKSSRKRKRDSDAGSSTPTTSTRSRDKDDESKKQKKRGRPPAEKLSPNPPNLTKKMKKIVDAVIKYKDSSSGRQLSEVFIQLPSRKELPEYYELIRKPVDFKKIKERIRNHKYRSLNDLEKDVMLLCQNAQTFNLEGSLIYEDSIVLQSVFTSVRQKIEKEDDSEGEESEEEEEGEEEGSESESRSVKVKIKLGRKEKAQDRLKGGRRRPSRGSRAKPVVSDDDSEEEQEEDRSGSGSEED", "test": "HiBiT-BRG1 cell-based degradation assay (Nano-Glo HiBiT, 24 h)", "details": "HeLa HiBit-BRG1/LgBit cells; for DC50: read-out: BRMG1 HiBit Degradation IC50; for Dmax: top dose 30 μM, read-out: BRG1 HiBit Degradation Maximum (%)", "procedure,_shortened": "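Stable HeLa line co-expressing HiBiT-BRG1 and LgBiT, compound-treated 24 h; luminescence read after Nano-Glo HiBiT lytic reagent. % degradation normalised between DMSO (high control) and 2 μM reference BRM/BRG1 degrader (low control).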"}}, "data": [{"smiles": "Cc1ncsc1-c1ccc([C@H](C)NC(=O)[C@@H]2C[C@@H](O)CN2C(=O)[C@H](C(C)C)n2cc(-c3ccc4nnc(-c5cccc(F)c5O)cc4c3)nn2)cc1", "note": "[Compound 150, (2S,4R)-1-((S)-2-(4-(3-(3-fluoro-2-hydroxyphenyl)cinnolin-6-yl)-1H-1,2,3-triazol-1-yl)-3-methylbutanoyl)-4-hydroxy-N-((S)-1-(4-(4-methylthiazol-5-yl)phenyl)ethyl)pyrrolidine-2-carboxamide]", "values": [{"measurement": "DC50", "setting": "[1]", "value": "< 0.01", "unit": "µM"}, {"measurement": "BRM HiBit Degradation Maximum (%)", "setting": "[1]", "value": "A (“A” indicates maximum degradation ≥75%)"}, {"measurement": "DC50", "setting": "[2]", "value": "< 0.01", "unit": "µM"}, {"measurement": "Dmax", "setting": "[2]", "value": "> 75", "unit": "%"}]}, {"smiles": "CC(C)[C@@H](C(=O)N1C[C@H](O)C[C@H]1C(=O)N[C@@H](C)c1ccc(F)cc1)c1cc(N2CC3(C2)CN(c2cc4nnc(-c5ccccc5O)cc4cc2C(F)F)C3)no1", "note": "[Compound 236, (2S,4R)-1-((R)-2-(3-(6-(6-(difluoromethyl)-3-(2-hydroxyphenyl)cinnolin-7-yl)-2,6-diazaspiro[3.3]heptan-2-yl)isoxazol-5-yl)-3-methylbutanoyl)-N-((S)-1-(4-fluorophenyl)ethyl)-4-hydroxypyrrolidine-2-carboxamide]", "values": [{"measurement": "DC50", "setting": "[1]", "value": "> 0.01", "unit": "µM"}, {"measurement": "BRM HiBit Degradation Maximum (%)", "setting": "[1]", "value": "A (“A” indicates maximum degradation ≥75%)"}, {"measurement": "Dmax", "setting": "[2]", "value": "< 50", "unit": "%"}]}, {"smiles": "Cc1ncsc1-c1ccc([C@H](C)NC(=O)[C@@H]2C[C@@H](O)CN2C(=O)[C@@H](c2cc(N3CCC4(CC3)CCN(c3ccc5cc(-c6ccccc6O)nnc5c3)C4=O)no2)C(C)C)cc1", "note": "[Compound 104, (2S,4R)-4-hydroxy-1-((R)-2-(3-(2-(3-(2-hydroxyphenyl)cinnolin-7-yl)-1-oxo-2,8-diazaspiro[4.5]decan-8-yl)isoxazol-5-yl)-3-methylbutanoyl)-N-((S)-1-(4-(4-methylthiazol-5-yl)phenyl)ethyl)pyrrolidine-2-carboxamide]", "values": [{"measurement": "DC50", "setting": "[1]", "value": "< 0.01", "unit": "µM"}, {"measurement": "BRM HiBit Degradation Maximum (%)", "setting": "[1]", "value": "A (“A” indicates maximum degradation ≥75%)"}, {"measurement": "Dmax", "setting": "[2]", "value": "< 50", "unit": "%"}]}, {"smiles": "Cc1ncsc1-c1ccc([C@H](C)NC(=O)[C@@H]2C[C@@H](O)CN2C(=O)C(c2cc(N3CC4(CN(c5cc(C(F)F)c6cc(-c7ccccc7O)nnc6c5)C4)C3)no2)C(C)C)cc1", "note": "(stereo partly drawn) [Compound 191, (2S,4R)-1-(2-(3-(6-(5-(difluoromethyl)-3-(2-hydroxyphenyl)cinnolin-7-yl)-2,6-diazaspiro[3.3]heptan-2-yl)isoxazol-5-yl)-3-methylbutanoyl)-4-hydroxy-N-((S)-1-(4-(4-methylthiazol-5-yl)phenyl)ethyl)pyrrolidine-2-carboxamide]", "values": [{"measurement": "DC50", "setting": "[1]", "value": "> 0.01", "unit": "µM"}, {"measurement": "BRM HiBit Degradation Maximum (%)", "setting": "[1]", "value": "A (“A” indicates maximum degradation ≥75%)"}, {"measurement": "Dmax", "setting": "[2]", "value": "< 50", "unit": "%"}]}, {"smiles": "Cc1ncsc1-c1ccc([C@H](C)NC(=O)[C@@H]2C[C@@H](O)CN2C(=O)[C@@H](c2cc(N3CC[C@@H](c4ccc5cc(-c6ccccc6O)nnc5c4)C3)no2)C(C)C)cc1", "note": "[Compound 58, (2S,4R)-4-hydroxy-1-((R)-2-(3-((S)-3-(3-(2-hydroxyphenyl)cinnolin-7-yl)pyrrolidin-1-yl)isoxazol-5-yl)-3-methylbutanoyl)-N-((S)-1-(4-(4-methylthiazol-5-yl)phenyl)ethyl)pyrrolidine-2-carboxamide]", "values": [{"measurement": "DC50", "setting": "[1]", "value": "< 0.01", "unit": "µM"}, {"measurement": "BRM HiBit Degradation Maximum (%)", "setting": "[1]", "value": "A (“A” indicates maximum degradation ≥75%)"}, {"measurement": "Dmax", "setting": "[2]", "value": "< 50", "unit": "%"}]}, {"smiles": "Cc1ncsc1-c1ccc([C@H](C)NC(=O)[C@@H]2C[C@@H](O)CN2C(=O)[C@@H](c2cc(N3CC4(CN(c5ccc6cc(-c7cccc(F)c7O)nnc6c5)C4)C3)no2)C(C)C)cc1", "note": "[Compound 246, (2S,4R)-1-((R)-2-(3-(6-(3-(3-fluoro-2-hydroxyphenyl)cinnolin-7-yl)-2,6-diazaspiro[3.3]heptan-2-yl)isoxazol-5-yl)-3-methylbutanoyl)-4-hydroxy-N-((S)-1-(4-(4-methylthiazol-5-yl)phenyl)ethyl)pyrrolidine-2-carboxamide]", "values": [{"measurement": "DC50", "setting": "[1]", "value": "< 0.01", "unit": "µM"}, {"measurement": "BRM HiBit Degradation Maximum (%)", "setting": "[1]", "value": "A (“A” indicates maximum degradation ≥75%)"}, {"measurement": "Dmax", "setting": "[2]", "value": "< 50", "unit": "%"}]}, {"smiles": "Cc1ncsc1-c1ccc([C@H](C)NC(=O)[C@@H]2C[C@@H](O)CN2C(=O)[C@@H](c2cc(N3CCN(c4ccc5nnc(-c6ccccc6O)cc5c4)CC3)no2)C(C)C)cc1", "note": "[Compound 57, (2S,4R)-4-hydroxy-1-((R)-2-(3-(4-(3-(2-hydroxyphenyl)cinnolin-6-yl)piperazin-1-yl)isoxazol-5-yl)-3-methylbutanoyl)-N-((S)-1-(4-(4-methylthiazol-5-yl)phenyl)ethyl)pyrrolidine-2-carboxamide]", "values": [{"measurement": "DC50", "setting": "[1]", "value": "< 0.01", "unit": "µM"}, {"measurement": "BRM HiBit Degradation Maximum (%)", "setting": "[1]", "value": "A (“A” indicates maximum degradation ≥75%)"}, {"measurement": "DC50", "setting": "[2]", "value": "> 0.01", "unit": "µM"}, {"measurement": "Dmax", "setting": "[2]", "value": "> 75", "unit": "%"}]}, {"smiles": "Cc1ncsc1-c1ccc([C@H](C)NC(=O)[C@@H]2C[C@@H](O)CN2C(=O)[C@H](c2cc(-c3ccnc(N4CCC(c5ccc6nnc(-c7ccccc7O)cc6c5)CC4)n3)no2)C(C)C)cc1", "note": "[Compound 37]", "values": [{"measurement": "BRM HiBit Degradation Maximum (%)", "setting": "[1]", "value": "C (“C” indicates maximum degradation <50%)"}, {"measurement": "Dmax", "setting": "[2]", "value": "< 50", "unit": "%"}]}, {"smiles": "Cc1cc(N2CCC(c3ccc4cc(-c5ccccc5O)nnc4c3)CC2)ncc1-c1cc([C@H](C(=O)N2C[C@H](O)C[C@H]2C(=O)N[C@@H](C)c2ccc(-c3scnc3C)cc2)C(C)C)on1", "note": "[Compound 81, (2S,4R)-4-hydroxy-1-((R)-2-(3-(6-(4-(3-(2-hydroxyphenyl)cinnolin-7-yl)piperidin-1-yl)-4-methylpyridin-3-yl)isoxazol-5-yl)-3-methylbutanoyl)-N-((S)-1-(4-(4-methylthiazol-5-yl)phenyl)ethyl)pyrrolidine-2-carboxamide]", "values": [{"measurement": "DC50", "setting": "[1]", "value": "< 0.01", "unit": "µM"}, {"measurement": "BRM HiBit Degradation Maximum (%)", "setting": "[1]", "value": "A (“A” indicates maximum degradation ≥75%)"}, {"measurement": "Dmax", "setting": "[2]", "value": "< 50", "unit": "%"}]}, {"smiles": "Cc1ncsc1-c1ccc([C@H](C)NC(=O)[C@@H]2C[C@@H](O)CN2C(=O)[C@@H](c2cc(N3CC4(CCN4c4ccc5cc(-c6ccccc6O)nnc5c4)C3)no2)C(C)C)cc1", "note": "[Compound 100, (2S,4R)-4-hydroxy-1-((R)-2-(3-(1-(3-(2-hydroxyphenyl)cinnolin-7-yl)-1,6-diazaspiro[3.3]heptan-6-yl)isoxazol-5-yl)-3-methylbutanoyl)-N-((S)-1-(4-(4-methylthiazol-5-yl)phenyl)ethyl)pyrrolidine-2-carboxamide]", "values": [{"measurement": "DC50", "setting": "[1]", "value": "> 0.01", "unit": "µM"}, {"measurement": "BRM HiBit Degradation Maximum (%)", "setting": "[1]", "value": "B (“B” indicates maximum degradation ≥50%)"}, {"measurement": "Dmax", "setting": "[2]", "value": "< 50", "unit": "%"}]}, {"smiles": "COc1cc2nnc(-c3ccccc3O)cc2cc1C1CN(c2ncc(-c3cc([C@H](C(=O)N4C[C@H](O)C[C@H]4C(=O)N[C@@H](C)c4ccc(-c5scnc5C)cc4)C(C)C)on3)cn2)C1", "note": "[Compound 24]", "values": [{"measurement": "DC50", "setting": "[1]", "value": "< 0.01", "unit": "µM"}, {"measurement": "BRM HiBit Degradation Maximum (%)", "setting": "[1]", "value": "A (“A” indicates maximum degradation ≥75%)"}, {"measurement": "DC50", "setting": "[2]", "value": "< 0.01", "unit": "µM"}, {"measurement": "Dmax", "setting": "[2]", "value": "> 75", "unit": "%"}]}, {"smiles": "Cc1ncsc1-c1ccc([C@H](C)NC(=O)[C@@H]2C[C@@H](O)CN2C(=O)[C@@H](c2cc(N3CC4(C3)CN(c3cc5nnc(-c6ccccc6O)cc5cc3C3CC3)C4)no2)C(C)C)cc1", "note": "[Compound 126, (2S,4R)-1-((R)-2-(3-(6-(6-cyclopropyl-3-(2-hydroxyphenyl)cinnolin-7-yl)-2,6-diazaspiro[3.3]heptan-2-yl)isoxazol-5-yl)-3-methylbutanoyl)-4-hydroxy-N-((S)-1-(4-(4-methylthiazol-5-yl)phenyl)ethyl)pyrrolidine-2-carboxamide]", "values": [{"measurement": "DC50", "setting": "[1]", "value": "< 0.01", "unit": "µM"}, {"measurement": "BRM HiBit Degradation Maximum (%)", "setting": "[1]", "value": "A (“A” indicates maximum degradation ≥75%)"}, {"measurement": "DC50", "setting": "[2]", "value": "< 0.01", "unit": "µM"}, {"measurement": "Dmax", "setting": "[2]", "value": "> 75", "unit": "%"}]}, {"smiles": "Cc1ncsc1-c1ccc([C@H](C)NC(=O)[C@@H]2C[C@@H](O)CN2C(=O)[C@@H](c2cc(N3CC4(CN(c5cc(C)c6cc(-c7ccccc7O)nnc6c5)C4)C3)no2)C(C)C)cc1", "note": "[Compound 145, (2S,4R)-4-hydroxy-1-((R)-2-(3-(6-(3-(2-hydroxyphenyl)-5-methylcinnolin-7-yl)-2,6-diazaspiro[3.3]heptan-2-yl)isoxazol-5-yl)-3-methylbutanoyl)-N-((S)-1-(4-(4-methylthiazol-5-yl)phenyl)ethyl)pyrrolidine-2-carboxamide]", "values": [{"measurement": "DC50", "setting": "[1]", "value": "< 0.01", "unit": "µM"}, {"measurement": "BRM HiBit Degradation Maximum (%)", "setting": "[1]", "value": "A (“A” indicates maximum degradation ≥75%)"}, {"measurement": "Dmax", "setting": "[2]", "value": "< 50", "unit": "%"}]}, {"smiles": "Cc1ncsc1-c1ccc([C@H](C)NC(=O)[C@@H]2C[C@@H](O)CN2C(=O)[C@@H](c2cc(N3CCC(N4CC(c5ccc6cc(-c7ccccc7O)nnc6c5)C4)CC3)no2)C(C)C)cc1", "note": "[Compound 10, (2S,4R)-4-hydroxy-1-((R)-2-(3-(4-(3-(3-(2-hydroxyphenyl)cinnolin-7-yl)azetidin-1-yl)piperidin-1-yl)isoxazol-5-yl)-3-methylbutanoyl)-N-((S)-1-(4-(4-methylthiazol-5-yl)phenyl)ethyl)pyrrolidine-2-carboxamide]", "values": [{"measurement": "DC50", "setting": "[1]", "value": "> 0.01", "unit": "µM"}, {"measurement": "BRM HiBit Degradation Maximum (%)", "setting": "[1]", "value": "A (“A” indicates maximum degradation ≥75%)"}, {"measurement": "Dmax", "setting": "[2]", "value": "< 50", "unit": "%"}]}, {"smiles": "Cc1ncsc1-c1ccc([C@H](C)NC(=O)[C@@H]2C[C@@H](O)CN2C(=O)[C@@H](c2cc(N3CCCC4(CN(c5ccc6cc(-c7ccccc7O)nnc6c5)C4)C3)no2)C(C)C)cc1", "note": "[Compound 154, (2S,4R)-4-hydroxy-1-((R)-2-(3-(2-(3-(2-hydroxyphenyl)cinnolin-7-yl)-2,6-diazaspiro [3.5]nonan-6-yl)isoxazol-5-yl)-3-methylbutanoyl)-N-((S)-1-(4-(4-methylthiazol-5-yl)phenyl)ethyl)pyrrolidine-2-carboxamide]", "values": [{"measurement": "DC50", "setting": "[1]", "value": "< 0.01", "unit": "µM"}, {"measurement": "BRM HiBit Degradation Maximum (%)", "setting": "[1]", "value": "A (“A” indicates maximum degradation ≥75%)"}, {"measurement": "DC50", "setting": "[2]", "value": "< 0.01", "unit": "µM"}, {"measurement": "Dmax", "setting": "[2]", "value": "> 75", "unit": "%"}]}]}
